The values below come from patent US20260091015A1, “TREATING IRON DEFICIENCY WITH FERRIC CARBOXYMALTOSE” (PHARMACOSMOS HOLDING A/S, priority 2018, published 2026).

One series deals with human intact FGF23. Description: Intact FGF23 (iFGF23) over time, two-site ELISA, trials IDA-04/IDA-05. It is filed as in vivo. The settings on record: single dose 1000 mg at baseline. As for the experimental part: The trial was a randomized, open-label, comparative trial. Subjects with Iron Deficiency Anaemia (IDA) were randomized 1:1 to one treatment course of one of the following treatments: • Group A: iron isomaltoside 1000 (Monofer®, Pharmacosmos, Holbok, Denmark, termed iron isomaltoside in the following), 1000 mg at baseline • Group B: ferric carboxymaltose (Ferinject®/Injectafer®, Vifor Inc, Switzerland), 750 mg at baseline and day 7, cumulative dose: 1500 mg
The secondary safety endpoints were the following: • Incidence of s-phosphate below 1.0 mg/dL at any time from baseline to day 35 • Time with hypophosphatemia (i.e. time with s-phosphate <2.0 mg/dL) from baseline to day 35 • Proportion of subjects with hypophosphatemia at day 35 • Absolute [Δ] and relative [%] changes in s-phosphate from baseline to 1, 7, 8, 14, 21, and 35 • Fractional phosphate urinary excretion at 1, 7, 8, 14, 21, and 35 • Change in iFGF23, cFGF23, vitamin D (25, 1,25, 24,25), PTH, and ionized calcium from baseline to 1, 7, 8, 14, 21, and 35 • Type and incidence of AEs • Serious or severe hypersensitivity reaction starting on or after the first dose of randomized treatment (i.e. treatment emergent). The hypersensitivity terms were defined as standardised Medical Dictionary for Regulatory Activities query (SMQ) terms. […]
The following safety laboratory assessments were analysed: • S-phosphate: inorganic phosphorous forms an ammonium phosphomolybdate complex having the formula (NH4)3[PO4](MoO3)12 with ammonium molybdate in the presence of sulfuric acid. The complex was determined photometrically in the ultraviolet region (340 nm) of the spectrum using the Roche Modular and Cobas Analyzer. • iFGF23 and cFGF23: the human intact FGF23 was measured by the 2nd generation Elisa kit manufactured by Immonotropics, Inc, San Clemente, CA. […] The human C-terminal FGF23 was measured by the Elisa kit manufactured by Immonotropics, Inc, San Clemente, CA. […] After evaporation under nitrogen, the residue was reconstituted and analyzed using Liquid Chromatography (LC) with Tandem Mass Spectrometric detection (MS/MS). […] A direct relationship exists between the amount of PTH present in the patient sample and the amount of relative light units (RLUs) detected by the system. • Ionized calcium: Measured by the IL GEM Premier 3500 PAK cartridge. […]

The conditions of series [1]: clinical trials and case reports; Wolf et al., 2013; cited from earlier work.

As for iron isomaltoside 1000 [IIM], the “change of the iFGF23 level” value in the series with human intact FGF23 is reported as “essentially no change”. Consider saccharated iron oxide, for which the “risk for iFGF23-mediated reduction of serum phosphate levels and development of hypophosphatemia” value in series [1] was “highest risk”.

Consider iron polymaltose, for which the “risk for iFGF23-mediated reduction of serum phosphate levels and development of hypophosphatemia” value in series [1] was “highest risk”.
